Results: publication PMC7770833, “Design, Synthesis, and Biological Evaluation of a Series of Oxazolone Carboxamides as a Novel Class of Acid Ceramidase Inhibitors” (Journal of Medicinal Chemistry, 2020)
In brackets after ≈: the same amount, converted by molar mass. Counter-ions that a name gives are not always drawn. Each block holds one molecule with its values, some of them ahead of it.

What was measured:
[1] = biological target: T1, hAC (Homo sapiens, UniProt Q13510); assay: Fluorogenic hAC assay (hAC-enriched HEK293 lysate); type: biochemical; set-up: expressed in transfected cells; lysosome-enriched lysate; conditions: for hAC inhibition, result in words: concentrations tested 1 and 10 μM where stated; for hAC, IC50 (micromicrolar): supplementary CSV
T1 sequence (Q13510 22-395): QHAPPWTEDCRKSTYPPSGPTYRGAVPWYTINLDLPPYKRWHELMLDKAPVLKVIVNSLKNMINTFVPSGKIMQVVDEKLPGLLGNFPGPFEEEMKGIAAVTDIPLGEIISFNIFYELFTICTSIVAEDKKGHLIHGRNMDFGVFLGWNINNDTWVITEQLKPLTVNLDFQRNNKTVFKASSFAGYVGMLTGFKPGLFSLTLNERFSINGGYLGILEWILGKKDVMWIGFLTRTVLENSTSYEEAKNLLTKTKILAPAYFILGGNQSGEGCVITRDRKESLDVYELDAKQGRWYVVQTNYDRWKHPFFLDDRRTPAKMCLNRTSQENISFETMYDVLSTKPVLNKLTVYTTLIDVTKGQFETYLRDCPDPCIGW
Description: HEK293 cells stably expressing hAC (HEK293-hAC) were generated in our laboratory using a protocol, as previously described.[30] Briefly, hAC (variant 1 coding sequence, NM_177924) cDNA was purchased from Open Biosystems (clone ID 3923451) and subcloned in the mammalian expression vector pCDNA3.1, containing the neomycin resistance gene. HEK293 cells were transfected with the hAC-pCDNA3.1 construct using a JetPEI reagent (Polyplus Transfection, Illkirch-Graffenstaden, France) and following the manufacturer’s instructions. A stable cell line was generated by selection with G418 (1 mg/mL), and cell clones were derived by limited dilution plating. HEK293-hAC were grown in Dulbecco’s modified Eagle medium (DMEM) containing 10% fetal bovine serum (FBS), 1% glutamine, 1 mM sodium pyruvate, and 500 μg/mL G418. Cells were harvested and pellets were stored at −80 °C until lysosomal-enriched lysate preparation. Cells were suspended in 20 mM Tris HCl (pH 7.5) with 0.32 M sucrose, sonicated, and centrifuged at 800 × g for 30 min at 4 °C. Supernatants were then centrifuged at 12 000 × g for 30 min at 4 °C. Pellets were re-suspended in PBS (pH 7.4) and subjected to three freeze–thaw cycles at −80 °C. The suspension was finally centrifuged at 105 000 × g for 1 h at 4 °C, and protein concentration was measured in the supernatant with a bicinchoninic acid based protein assay. This hAC-enriched preparation allowed us to further optimize the enzymatic assay and to use small amounts of lysate (2 μg/well) at the 5 μM substrate (Rbm14-12) around its KM (KM = 5.0 μM).
The assay was performed in Optiplate 96-wells black plates, with each reaction well containing a mixture of 25 mM NaOAc buffer (pH 4.5) and a fixed amount of protein (2 μg) in a volume of 85 μL. After 10 min of pre-incubation with the test compounds (diluted 20× from DMSO stock solutions at different concentrations), the fluorogenic probe was added (diluted 40× from EtOH stock solution, final concentration 5 μM). After 3 h incubation at 37 °C, reactions were stopped with 50 μL of MeOH and 100 μL of a 2.5 mg/mL NaIO4 fresh solution in 100 mM glycine/NaOH buffer (pH 10.6). The plates were further incubated for 2 h at 37 °C in the dark and fluorescence intensities were measured at excitation/emission wavelengths of 355/460 nm. Negative control samples consisted of the same incubation mixture in the absence of protein-enriched extracts. Data were plotted as a function of compound concentrations. IC50 values were calculated by nonlinear regression analysis using GraphPad Prism 5 (GraphPad Software Inc., CA, USA) applying a standard slope curve fitting. The reported IC50 values are the mean of at least three independent experiments performed in three technical replicates.

[2] = tested on: rat AC (rAC); conditions: cited from earlier work
[3] = tested on: hAC; conditions: cited from earlier work
[4] = biological target: T1, hAC; assay: Michaelis–Menten analysis of hAC; type: biochemical; set-up: expressed in transfected cells; lysosome-enriched lysate
Protocol: Assay conditions for the kinetic studies were the same as those described for the fluorogenic hAC assay. The enzyme-enriched lysate (2 μg) was incubated with the following concentrations of substrate Rbm14-12: 0.25, 0.5, 1, 2.5, 5, 10, 12.5, 15 μM. Compound 12a was used at a final concentration of 25 and 100 nM. Initial velocities (V0) were determined and automatically fitted to the Michaelis–Menten equation to obtain kinetic parameters (KM and Vmax). The graph is representative of two independent experiments, each performed in three technical replicates. Graphs and data analysis were performed using GraphPad Prism 5 software (GraphPad Software Inc., CA, USA).

[5] = Aqueous kinetic solubility assay; type: physicochemical; conditions: PBS pH 7.4
Protocol: The aqueous kinetic solubility was determined from a 10 mM CH3CN stock solution of the test compound in PBS at pH 7.4. The study was performed by the incubation of an aliquot of 10 mM CH3CN stock solution in PBS (pH 7.4) at a target concentration of 250 μM. The incubation was carried out under shaking at 25 °C for 1 h, followed by centrifugation at 21 100 × g for 30 min. The supernatant was analyzed by UPLC/MS for the quantification of the dissolved compound (in μM) by UV at a specific wavelength (215 nm). […] The UPLC/MS analyses were performed on a Waters Acquity UPLC/MS system consisting of SQDMS equipped with an ESI interface and a PDA detector. The PDA range was 210–400 nm. ESI in positive mode was used in the mass scan range 100–650 Da. The analyses were run on an Acquity UPLC BEH C18 column (50 × 2.1 mm ID, particle size 1.7 μm) with a VanGuard BEH C18 pre-column (5 × 2.1 mm ID, particle size 1.7 μm), using 10 mM NH4OAc in H2O at pH 5 adjusted with AcOH (A) and 10 mM NH4OAc in CH3CN/H2O (95:5) at pH 5 (B) as the mobile phase. The values are the mean of at least two independent experiments performed in two technical replicates.

SMILES: CCCCCCNC(=O)n1cc(Cl)c(=O)[nH]c1=O [Compound 1a]
IC50 [2]: 67 nM

SMILES: CCCCCCNC(=O)n1cc(C(F)(F)F)c(=O)[nH]c1=O [Compound 1b]
IC50 [2]: 12 nM

SMILES: CCCCCCNC(=O)n1cc(F)c(=O)n(C(=O)OCC(C)C)c1=O [Compound 1c]
IC50 [2]: 16 nM

SMILES: O=C(NCCCCc1ccccc1)n1cnc2ccccc21 [Compound 3a]
IC50 [3]: 2.5 nM

SMILES: COc1nc2ccccc2n1C(=O)NCCCCc1ccccc1 [Compound 3b]
IC50 [3]: 13.9 nM

SMILES: O=C(NCc1ccccc1)n1cnc2ccccc21 [Compound 3c]
IC50 [3]: 22.5 nM

SMILES: Cc1ccc(CNC(=O)n2cnc3ccccc32)cc1 [Compound 3d]
IC50 [3]: 14.8 nM

SMILES: O=C(NCCCCc1ccccc1)n1c(=O)oc2ccccc21 [Compound 4a]
IC50 [3]: 64 nM

SMILES: O=C(NCCCCc1ccccc1)n1c(=O)oc2cc(-c3ccc(F)cc3)ccc21 [Compound 4b]
IC50 [3]: 79 nM

SMILES: O=C(NCCCCc1ccccc1)n1c(=O)oc2cc(Cl)ccc21 [Compound 4c]
IC50 [3]: 33 nM

SMILES: CC(C)CNC(=O)n1c(=O)oc2cc(C3CCN(C)CC3)ccc21 [Compound 4d]
IC50 [3]: 166 nM

SMILES: CCCCCCNC(=O)n1cc(F)c(=O)[nH]c1=O [carmofur]
IC50 [2]: 29 nM

Second part, the molecule after the results:

hAC inhibition, result in words [1]: not active up to 10 μM
hAC, IC50 (micromicrolar) [1]: not active up to 10 micromolar
SMILES: CCC(C)NC(=O)n1cc(-c2ccccc2)oc1=O (racemic) [Compound 12f, (±) 2-Oxo-5-phenyl-N-s-butyl-oxazole-3-carboxamide]

IC50 ([1]; fluorogenic substrate Rbm14-12 5 μM, pH 4.5, mean of at least three experiments, read-out: hAC IC50 (μM)±SD): 0.007 ± 0.001 µM
SMILES: O=C(NCCCCc1ccccc1)n1c(-c2ccccc2)coc1=O [Compound 8a, 2-Oxo-4-phenyl-N-(4-phenylbutyl)oxazole-3-carboxamide]

hAC, IC50 (micromicrolar) [1]: not active up to 10 micromolar
SMILES: O=c1[nH]cc(-c2ccccc2)o1 [Compound 11a, 5-Phenyl-3H-oxazol-2-one]

hAC Vmax ([4]; 12a 25 nM): 18201 M/h
hAC Vmax ([4]; 12a 100 nM): 12016 M/h
effect on Michaelis–Menten constant (KM) ([4]; hAC-enriched lysates, in words): without influencing
effect on maximal catalytic velocity of AC (Vmax) ([4]; hAC-enriched lysates, in words): concentration-dependent reduction
SMILES: O=C(NCCCCc1ccccc1)n1cc(-c2ccccc2)oc1=O [Compound 12a, 2-Oxo-5-phenyl-N-(4-phenylbutyl)oxazole-3-carboxamide]

hAC inhibition, result in words [1]: complete loss in potency
hAC, IC50 (micromicrolar) [1]: not active up to 10 micromolar
SMILES: COCCCNC(=O)n1cc(-c2ccccc2)oc1=O [Compound 12d, N-(3-Methoxypropyl)-2-oxo-5-phenyl-oxazole-3-carboxamide]

hAC, IC50 (micromicrolar) [1]: not active up to 10 micromolar
SMILES: O=C(Nc1ccccc1)n1cc(-c2ccccc2)oc1=O [Compound 12g, 2-Oxo-N,5-diphenyl-oxazole-3-carboxamide]

hAC IC50 (μM)±SD ([1]; fluorogenic substrate Rbm14-12 5 μM, pH 4.5, mean of at least three experiments): submicromolar
SMILES: O=C(NCCCCc1ccccc1)n1cc(-c2ccc(F)cc2)oc1=O [Compound 12j, 5-(4-Fluorophenyl)-2-oxo-N-(4-phenylbutyl)oxazole-3-carboxamide]

solubility at 1 h [5]: 248 µM (≈ 88.6 µg/mL)
SMILES: CN1CCC(c2cn(C(=O)NCCCCc3ccccc3)c(=O)o2)CC1 [Compound 12y, 5-(1-Methyl-4-piperidyl)-2-oxo-N-(4-phenylbutyl)oxazole-3-carboxamide]

hAC, IC50 (micromicrolar) [1]: not active up to 10 micromolar
SMILES: CN(CCCCc1ccccc1)C(=O)n1cc(-c2ccccc2)oc1=O [Compound 13a, N-Methyl-2-oxo-5-phenyl-N-(4-phenylbutyl)oxazole-3-carboxamide]

hAC, IC50 (micromicrolar) [1]: not active up to 10 micromolar
SMILES: O=C(OCCCCc1ccccc1)n1cc(-c2ccccc2)oc1=O [Compound 13b, 4-Phenylbutyl-2-oxo-5-phenyl-oxazole-3-carboxylate]

hAC, IC50 (micromicrolar) [1]: not active up to 10 micromolar
SMILES: O=C(CCCCCc1ccccc1)n1cc(-c2ccccc2)oc1=O [Compound 13c, 5-Phenyl-3-(6-phenylhexanoyl)oxazol-2-one]

hAC, IC50 (micromicrolar) [1]: not active up to 10 micromolar
SMILES: O=C(NCCCCc1ccccc1)N1C(=O)OC[C@@H]1c1ccccc1 [Compound 15a, (4S)-(+)-2-Oxo-4-phenyl-N-(4-phenylbutyl)oxazolidine-3-carboxamide]

hAC, IC50 (micromicrolar) [1]: not active up to 10 micromolar
SMILES: O=C(NCCCCc1ccccc1)N1C(=O)OC[C@H]1c1ccccc1 [Compound 15b, (4R)-(−)-2-Oxo-4-phenyl-N-(4-phenylbutyl)oxazolidine-3-carboxamide]

hAC, IC50 (micromicrolar) [1]: not active up to 10 micromolar
SMILES: O=C(NCCCCc1ccccc1)N1C[C@H](c2ccccc2)OC1=O [Compound 18a, (5S)-(−)-2-Oxo-5-phenyl-N-(4-phenylbutyl)oxazolidine-3-carboxamide]

hAC, IC50 (micromicrolar) [1]: not active up to 10 micromolar
SMILES: O=C(NCCCCc1ccccc1)N1C[C@@H](c2ccccc2)OC1=O [Compound 18b, (5R)-(+)-2-Oxo-5-phenyl-N-(4-phenylbutyl)oxazolidine-3-carboxamide]

hAC inhibition, result in words [1]: complete loss in potency
hAC, IC50 (micromicrolar) [1]: not active up to 10 micromolar
SMILES: CC(C)CNC(=O)n1cc(-c2ccc(F)c(C3CCN(C)CC3)c2)oc1=O [Compound 25f, 5-[4-Fluoro-3-(1-methyl-4-piperidyl)phenyl]-N-isobutyl-2-oxo-oxazole-3-carboxamide]

hAC, IC50 (micromicrolar) [1]: not active up to 10 micromolar
SMILES: CN1CCC(c2cc(F)ccc2-c2c[nH]c(=O)o2)CC1 [Compound 31c, 5-[4-Fluoro-2-(1-methyl-4-piperidyl)phenyl]-3H-oxazol-2-one]

hAC inhibition, result in words [1]: complete loss in potency
hAC, IC50 (micromicrolar) [1]: not active up to 10 micromolar
SMILES: CC(C)CNC(=O)n1cc(-c2ccc(F)cc2C2CCN(C)CC2)oc1=O [Compound 32c, 5-[4-Fluoro-2-(1-methyl-4-piperidyl)phenyl]-N-isobutyl-2-oxo-oxazole-3-carboxamide Hydrochloride]
